This note sets out measurements from ChEMBL document CHEMBL1130649, “Rational design of a new series of mixed anti-HIV pronucleotides” (Bioorg Med Chem Lett, 1998).

SMILES strings stand for the structures. Where only a bound is given, the exact number is not on record here.

In data set [1] the test system is CEM-SS. Briefly: Compound was tested for inhibitory activity against HIV-1 replication in CEM-SS cells. Conditions: Homo sapiens. It is filed as functional, cell-based.
A short description of data set [2]: Half-life in RPMI 1640 containing 10% heat inactivated fetal calf serum culture medium at step 1. The note with it: cattle. It is filed as ADME, Bos taurus.
The subject of data set [3] is CCRF-CEM. The data set is described as follows: Compound was tested for inhibitory activity against HIV-1 replication in CEM/TK- cells. It is filed as functional, cell-based. The note with it: Homo sapiens.
The subject of data set [4] is CCRF-CEM. The data set is described as follows: Compound was tested for cytotoxicity against HIV-1 in CEM/TK- cells. It is filed as functional. The note with it: Homo sapiens.
Data set [5] in a line: Half-life in total CEM cell extract at Step 1. It is filed as ADME, CCRF-CEM. The note with it: human.
The subject of data set [6] is CEM-SS. The data set is described as follows: Compound was tested for cytotoxicity against HIV-1 in CEM-SS cells. The note with it: Homo sapiens. It is filed as functional.

In general, IC50 refers to the concentration that inhibits the measured activity by half. By half-life is commonly meant how long it takes for the measured level to halve. The term CC50 denotes the concentration that lowers cell viability or growth by half. High values mean lower toxicity to the cells, low ones greater toxicity to the cells. Turning to `Cc1cn([C@H]2C[C@H](N=[N+]=[N-])[C@@H](COP(=O)(OCCSC(=O)C(C)(C)C)Oc3ccc(CC(N)C(=O)O)cc3)O2)c(=O)[nH]c1=O.Cl` (stereo partly specified), the results for the concentration for half-maximal inhibition (IC50) in the data set with CEM-SS [1] and with CCRF-CEM [3] were 0.006 µM and 29 µM, respectively. Further, the results for the half-life in data set [2] and in data set [5] were 86.4 h and 1.4 h, respectively. The half-maximal cytotoxic concentration (CC50) was 90 µM with CCRF-CEM [4] and greater than 90 µM in the data set with CEM-SS [6].

For the molecule `Cc1cn([C@H]2C[C@H](N=[N+]=[N-])[C@@H](COP(=O)(OCCSC(=O)C(C)(C)C)Oc3ccccc3)O2)c(=O)[nH]c1=O` (stereo partly specified), the results for the concentration for half-maximal inhibition (IC50) with CEM-SS [1] and with CCRF-CEM [3] were 0.001 µM and 3.5 µM, respectively. The half-life in data set [2] is 72 h; in data set [5], 1.2 h. Moreover, the 50% cytotoxic concentration (CC50) with CCRF-CEM [4] and with CEM-SS [6] was greater than 10 µM throughout.

As to `Cc1cn([C@H]2C[C@H](N=[N+]=[N-])[C@@H](CO)O2)c(=O)[nH]c1=O` [ZIDOVUDINE], the IC50 in the data set with CEM-SS [1] was 0.006 µM; in the data set with CCRF-CEM [3], greater than 100 µM. Also, the CC50 in the data set with CCRF-CEM [4] and with CEM-SS [6] was greater than 100 µM throughout.
